# PMC10992195, “Identification, heterologous expression and characterization of a new unspecific peroxygenase from Marasmius fiardii PR-910” (Bioresources and Bioprocessing, 2024)
# Counter-ions that a name gives are not always drawn. Like-named read-outs stand apart in the source and are kept apart here.
# Tests used:
# [1] = tested on: T1, rMfiUPO; settings: 2 mM H2O2 co-substrate; 30 °C; optimal pH (pH 4.0 optimum in text; pH 4.5 sodium citrate in Fig. 4 legend)
# T1 construct: gene MfiUPO
# [2] = tested on: T2, rMfiUPO; test: spectrophotometric 4-nitrocatechol formation, […] nm, Michaelis-Menten fit; format: biochemical, Marasmius fiardii PR-910; settings: 2 mM H2O2 co-substrate; 30 °C; pH 7.0 potassium phosphate
# T2 construct: gene MfiUPO; full-length codon-optimised gene with native signal peptide, secreted by Pichia pastoris X33 (pPICZ-A); purified, glycosylated, 40-55 kDa smear, about 35 kDa after Endo H; short-type UPO, heme-thiolate
# [3] = tested on: T2, rMfiUPO; test: spectrophotometric veratraldehyde formation, […] nm, Michaelis-Menten fit; format: biochemical, Marasmius fiardii PR-910; settings: 2 mM H2O2 co-substrate; 30 °C; pH 6.0 potassium phosphate
structure (smiles),measurement,setting,value
"CCn1c(=NN=c2sc3cc(S(=O)(=O)O)ccc3n2CC)sc2cc(S(=O)(=O)O)ccc21 [ABTS, 2,2ʹ-azinobis (3-ethylbenzothiazoline-6-sulfonic acid) diammonium salt]",Km,[1],22 ± 7 µM
"O=[N+]([O-])c1ccc2c(c1)OCO2 [NBD, 5-nitro-1,3-benzodioxole]",Km,[2],93 ± 14 µM
COc1ccc(CO)cc1OC [VA],Km,[3],392 ± 109 µM
